# Where two headings read alike, the source gives them in different places.
# Experiments:
# Type in all cases: in vivo
# [1] = system: Erysiphe graminis tritici (powdery mildew); assay: Greenhouse Test 1, foliar spray fungicide screen (POWD MDEW), host wheat; conditions: disease control rating, 400 ppm (+++ at 100 ppm)
# [2] = system: Pyricularia oryzae (rice blast); conditions: disease control rating, foliar spray, host rice; 400 ppm (+++ at 100 ppm)
# [3] = system: Puccinia recondita tritici (leaf rust); assay: Greenhouse Test 1, foliar spray fungicide screen (LEAF RUST), host wheat; conditions: disease control rating, 400 ppm (+++ at 100 ppm)
# [4] = system: Botrytis cinerea (gray mold); assay: Greenhouse Test 1, foliar spray fungicide screen (GRAY MOLD), host grape berries; conditions: disease control rating, 400 ppm (+++ at 100 ppm)
# [5] = system: Pseudoperonospora cubensis (downy mildew); assay: Greenhouse Test 1, foliar spray fungicide screen (DOWN MDEW), host squash; conditions: disease control rating, 400 ppm (+++ at 100 ppm)
# [6] = system: Southern corn rootworm (Diabrotica undecimpuctata howardi Barber); assay: Mite/insect screen, soil treatment (CRW); conditions: percent mortality, soil treatment; for mortality at 12 ppm / mortality at 24 ppm: Diabrotica, read-out: CRW RESULTS %
# Method in brief: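 Five 2–3 instar larvae were placed on dry sandy soil with a presoaked corn seed after the soil had received 1 mL of compound solution and dried 6–12 h; cups were kept capped at 23°C. Mortality (%) and phytotoxicity were read after standard exposure. Formulation: acetone/alcohol with emulsifiers, water-diluted.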
# [7] = system: southern armyworm (Spodopetra eridania Cramer); assay: Mite/insect screen, sprayed squash leaves (SAW); conditions: percent mortality; for mortality at 200 ppm / mortality at 400 ppm: Spodoptera eridania, read-out: SAW RESULTS %
# Method in brief: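 Mortality and phytotoxicity read after standard exposure periods on sprayed squash: cotyledons for melon aphids and twospotted spider mites, excised leaves placed with southern armyworm larvae. Spray solutions were water dilutions of acetone/alcohol stocks containing TOXIMUL R and S emulsifiers, applied to runoff at 10 psi and air-dried one hour.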
# [8] = system: Twospotted spider mites (Tetranychus urticae Koch); assay: Mite/insect screen, sprayed squash cotyledons (SM); conditions: Tetranychus urticae, percent mortality, read-out: SM RESULTS %
# Method in brief: (§1)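 Acetone/alcohol (50:50) + emulsifier blends 23 g/L and 13 g/L; water dilution to test concs. Spray both leaf surfaces to runoff, dry 1 h. For armyworm, 2 excised uninfested leaves into Petri dish with larvae. Readout: % mortality, phytotoxicity.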
# [9] = system: melon aphids (Aphis gossypii Glover); assay: Mite/insect screen, sprayed squash cotyledons (MA); conditions: Aphis gossypii, percent mortality, read-out: MA RESULTS %
# Method in brief: as §1
Compound,POWD MDEW [1],RICE BLAST [2],LEAF RUST [3],GRAY MOLD [4],DOWN MDEW [5],mortality at 12 ppm ([6]; CRW rate 12.00 ppm),mortality at 24 ppm ([6]; CRW rate 24.00 ppm),mortality at 200 ppm ([7]; spray rate 200 ppm),mortality at 400 ppm ([7]; spray rate 400 ppm),mortality at 200 ppm ([8]; spray rate 200 ppm),mortality at 400 ppm ([8]; spray rate 400 ppm),mortality at 200 ppm ([9]; spray rate 200 ppm),mortality at 400 ppm ([9]; spray rate 400 ppm),other results
"CC(C)Cc1ccc(C(C)COc2ncnc3c(F)cccc23)cc1 (centres unmarked) [Example 113, 8-fluoro-4-[2-[4-(2-methylpropyl)phenyl]propoxy]quinazoline]",+ (+ = 20-89% control at 400 ppm),+++ (+++ = 90-100% control at 100 ppm),+++ (+++ = 90-100% control at 100 ppm),- (- = 0-19% control at 400 ppm),+++ (+++ = 90-100% control at 100 ppm),0%,0%,0%,40%,100%,0%,100%,0%,
"Fc1cccc2c(OCCc3cccc4ccccc34)ncnc12 [Example 141, 8-fluoro-4-[2-(1-naphthalenyl)ethoxy]quinazoline]",+ (+ = 20-89% control at 400 ppm),+ (+ = 20-89% control at 400 ppm),+ (+ = 20-89% control at 400 ppm),- (- = 0-19% control at 400 ppm),+ (+ = 20-89% control at 400 ppm),,0%,,0%,,0%,,0%,
"c1ccc(-c2cccc(CCOc3ncnc4ccccc34)c2)cc1 [Example 173, 4-[2-(1,1'-biphenyl)-3-ylethoxy]quinazoline]",++ (++ = 90-100% control at 400 ppm),+++ (+++ = 90-100% control at 100 ppm),+ (+ = 20-89% control at 400 ppm),- (- = 0-19% control at 400 ppm),+ (+ = 20-89% control at 400 ppm),0%,0%,0%,0%,0%,0%,80%,0%,
"Fc1cccc2c(OCCc3cccc(C(F)(F)F)c3)ncnc12 [Example 133, 8-fluoro-4-[2-[3-(trifluoromethyl)phenyl]ethoxy]quinazoline]",+++ (+++ = 90-100% control at 100 ppm),+++ (+++ = 90-100% control at 100 ppm),+++ (+++ = 90-100% control at 100 ppm),- (- = 0-19% control at 400 ppm),+ (+ = 20-89% control at 400 ppm),0%,100%,0%,0%,,100%,,100%,CRW RESULTS % ([6]; CRW rate 12.00 ppm): 0%; SAW RESULTS % ([7]; spray rate 200 ppm): 0%
"CCCCOc1ccc(CCOc2ncnc3c(F)cccc23)cc1 [Example 156, 8-fluoro-4-[2-(4-butoxyphenyl)ethoxy]quinazoline]",+++ (+++ = 90-100% control at 100 ppm),+++ (+++ = 90-100% control at 100 ppm),+++ (+++ = 90-100% control at 100 ppm),- (- = 0-19% control at 400 ppm),+++ (+++ = 90-100% control at 100 ppm),0%,0%,60%,0%,100%,80%,100%,100%,
"Cc1cc(C)c(CCOc2ncnc3ccccc23)c(C)c1 [Example 43, 4-[2-(2,4,6-trimethylphenyl)ethoxy]quinazoline]",++ (++ = 90-100% control at 400 ppm),++ (++ = 90-100% control at 400 ppm),++ (++ = 90-100% control at 400 ppm),- (- = 0-19% control at 400 ppm),++ (++ = 90-100% control at 400 ppm),,0%,,0%,,0%,,0%,
"CC(C)(C)c1ccc(CCCCOc2ncnc3c(F)cccc23)cc1 [Example 200, 8-fluoro-4-[4-[4-(t-butyl)phenyl]butoxy]quinazoline]",+++ (+++ = 90-100% control at 100 ppm),+++ (+++ = 90-100% control at 100 ppm),+ (+ = 20-89% control at 400 ppm),- (- = 0-19% control at 400 ppm),+++ (+++ = 90-100% control at 100 ppm),,,,,,,,,"mortality at 12 ppm ([6]; corn rootworm, CRW RATE 12.00 PPM): 100%; mortality at 24 ppm ([6]; corn rootworm, CRW RATE 24.00 PPM): 100%; mortality at 200 ppm ([7]; Southern armyworm, sprayed squash leaves, RATE 200 PPM): 0%; mortality at 400 ppm ([7]; Southern armyworm, sprayed squash leaves, RATE 400 PPM): 0%; mortality at 200 ppm ([8]; twospotted spider mites, sprayed squash cotyledons, RATE 200 PPM): 80%; mortality at 400 ppm ([8]; twospotted spider mites, sprayed squash cotyledons, RATE 400 PPM): 100%; mortality at 200 ppm ([9]; melon aphids, sprayed squash cotyledons, RATE 200 PPM): 60%; mortality at 400 ppm ([9]; melon aphids, sprayed squash cotyledons, RATE 400 PPM): 80%"
"c1ccc(CCCCOc2ncnc3ccccc23)cc1 [Example 42, 4-(4-phenylbutoxy)quinazoline]",+++ (+++ = 90-100% control at 100 ppm),+++ (+++ = 90-100% control at 100 ppm),+++ (+++ = 90-100% control at 100 ppm),- (- = 0-19% control at 400 ppm),+++ (+++ = 90-100% control at 100 ppm),0%,0%,0%,50%,100%,100%,100%,100%,
"CC(C)c1ccccc1CCOc1ncnc2ccccc12 [Example 135, 4-[2-[2-(1-methylethyl)phenyl]ethoxy]quinazoline]",+++ (+++ = 90-100% control at 100 ppm),+++ (+++ = 90-100% control at 100 ppm),+++ (+++ = 90-100% control at 100 ppm),- (- = 0-19% control at 400 ppm),+++ (+++ = 90-100% control at 100 ppm),0%,0%,0%,0%,0%,0%,0%,0%,
"Clc1ccccc1CCOc1ncnc2ccccc12 [Example 11, 4-[2-(2-chlorophenyl)ethoxy]quinazoline]",++ (++ = 90-100% control at 400 ppm),- (- = 0-19% control at 400 ppm),++ (++ = 90-100% control at 400 ppm),- (- = 0-19% control at 400 ppm),+++ (+++ = 90-100% control at 100 ppm),,0%,,0%,,0%,,0%,
"Fc1cccc2c(OCCc3ccccc3C(F)(F)F)ncnc12 [Example 56, 8-fluoro-4-[2-[2-(trifluoromethyl)phenyl]ethoxy]quinazoline]",+++ (+++ = 90-100% control at 100 ppm),+++ (+++ = 90-100% control at 100 ppm),+++ (+++ = 90-100% control at 100 ppm),- (- = 0-19% control at 400 ppm),+++ (+++ = 90-100% control at 100 ppm),0%,0%,0%,0%,40%,0%,100%,0%,
"Fc1cccc2c(OCCc3ccc(Oc4ccccc4)cc3)ncnc12 [Example 10, 8-fluoro-4-[2-(4-phenoxyphenyl)ethoxy]quinazoline]",+++ (+++ = 90-100% control at 100 ppm),+++ (+++ = 90-100% control at 100 ppm),+++ (+++ = 90-100% control at 100 ppm),- (- = 0-19% control at 400 ppm),+++ (+++ = 90-100% control at 100 ppm),,0%,,100%,,0%,,0%,

# Source: EP0326329B1, “Quinazoline derivatives useful as insecticides” (Dow AgroSciences LLC, priority 1988, dated 1989)
